Here are results for four molecules from ChEMBL document CHEMBL1150922, “A new photosystem II electron transfer inhibitor from Sorghum bicolor” (J Nat Prod, 1998).

Calls of active or inactive are those of the source. The calls are words filed in the database; no cut-off is given here.

In one assay the test system is Spinacia oleracea. The assay is described as follows: Reduction in light-induced chlorophyll fluorescence half-life in spinach thylakoids membrane at 0.3 to 1 uM. The assay is classed as functional, cell membranes.
Assay [1] can be described thus: Inhibition of photosystem 2 in spinach thylakoid membranes assessed as oxygen evolution. Conditions: read-out: I50. The assay is classed as cell membranes, Spinacia oleracea.
Assay [2] has as its system Lactuca sativa. The assay is described as follows: Phytotoxicity against lettuce seedlings assessed as inhibition of seed germination at >0.3 mM after 4 days. The assay is classed as functional, organism-based.
The subject of assay [3] is Lactuca sativa. The assay is described as follows: Phytotoxicity against lettuce seedlings assessed as inhibition of seed germination at 0.1 mM after 4 days. The assay is classed as functional, organism-based.

For `C=CC/C=C\C/C=C\CCCCCCCC1=C(OC)C(=O)C=C(OC)C1=O`, the outcome in the assay with Spinacia oleracea and in the assay on Lactuca sativa [2] was Active. Besides, the IC50 in assay [1] was determined as 280 nM. In addition, the outcome in the assay with Lactuca sativa [3] was inactive.

Consider `C=CC/C=C\C/C=C\CCCCCCCC1=C(O)C(=O)C=C(OCC)C1=O`, for which the result in the assay on Spinacia oleracea and in the assay with Lactuca sativa [2] was Active. In assay [1], the IC50 was 1070 nM. In the assay on Lactuca sativa [3], the result was inactive.

Turning to `CCNc1nc(Cl)nc(NC(C)C)n1` [ATRAZINE], the result in the assay on Spinacia oleracea and with Lactuca sativa [2] was Active. Besides, the IC50 in assay [1] turned out to be 930 nM. Further, the outcome in the assay on Lactuca sativa [3] was inactive.

Regarding `C=CC/C=C\C/C=C\CCCCCCCC1=C(O)C(=O)C=C(OC)C1=O` [SORGOLEONE], the result in the assay on Spinacia oleracea and with Lactuca sativa [2] was Active. The IC50 in assay [1] amounted to 100 nM. Moreover, in the assay with Lactuca sativa [3], the outcome was inactive.
